Assay type in all cases: cell-based
In one assay the test system is U373. The assay can be described thus: MTT cell viability assay with Chou-Talalay analysis. Conditions: Homo sapiens, U373 MG, 96 h, MTT 4 days later. Here is the method:
(§1) FIG. 9A depicts that temozolomide (TMZ) synergizes with oncolytic Herpes vector G47Δ in MGMT-negative glioma cell lines U87 and U373. U87 or U373 cells were seeded to 96-well plates at 3000 cells per well. The next day, 1:3 serial dilution series of Temozolomide (TMZ) (EC50 200 μM), and G47Δ (EC50 MOI=0.06) were prepared. TMZ was applied first followed by G47Δ 12 hours later. MTT assay was performed to measure cell viability 4 days later.
On the technique in general: Tetrazolium dyes change colour on reduction, which living cells bring about.

A further assay concerns U87. The description is as above. The conditions noted are these: Homo sapiens, U-87 MG, 96 h, MTT 4 days later. The protocol: as §1
For the next assay, the system named is GBM4 glioma stem cells. In words: MTS cell viability / cell killing assay with Chou-Talalay analysis. Conditions: Homo sapiens, 96 h, MTS 4 days later. Here is the method:
(§2) FIG. 10A depicts TMZ synergy with G47delta in MGMT-negative glioma stem cells (GBM4 and GBM8). GBM4 or GBM8 glioma stem cells were seeded to 96-well plates at 5000 cells per well. […] TMZ was applied first followed by G47Δ 12 hours later. MTS assay was performed to measure cell viability 4 days later.

Another assay deals with GBM8 glioma stem cells. Described as above. Conditions: Homo sapiens, 96 h, MTS 4 days later. Here is the method:
as §2

The subject of another assay is BT74 glioma stem cells. The assay can be described thus: MTS cell viability assay with Chou-Talalay analysis. Conditions: Homo sapiens, 96 h, MTS 4 days later. Here is the method: BT74 glioma stem cells were seeded to 96-well plates at 5000 cells per well. […] TMZ was applied first, with or without O6-Benzylguanine (O6-BG:80 μM), followed by G47Δ 12 hours later. MTS assay was performed to measure cell viability 4 days later.
(§3) TMZ was applied first, with or without O6-Benzylguanine (O6-BG:40 or 80 μM), followed by G47Δ 12 hours later. MTS assay was performed to measure cell viability 4 days later.

The test system of another assay is GBM13 glioma stem cells. The description is as above. Conditions: Homo sapiens, 96 h, MTS 4 days later. The protocol:
as §3

The structures appear in SMILES notation.

Consider `Cn1nnc2c(C(N)=O)ncn2c1=O` [TMZ, temozolomide], for which the EC50 – broadly, the midpoint of the concentration-response curve – stood at 200 µM with U373; 200 µM in the assay on U87; 20 µM in the assay with GBM4 glioma stem cells; 3 µM in the assay on GBM8 glioma stem cells; 1500 µM in the assay with BT74 glioma stem cells; 1500 µM in the assay with GBM13 glioma stem cells.

(Values after patent US8703120B2, “Use of oncolytic herpes viruses for killing cancer stem cells” (The General Hospital Corporation, priority 2008, dated 2014).)
